From PubChem BioAssay AID1996
In brackets after ≈: the same amount, converted by molar mass.

Details: buffer; pH 7.4; 200.0 µM

Row | Compound | solubility kinetic [µg/mL]
1 | Cc1c(Cl)cccc1NC(=O)CSc1nccn1C | > 44.4
2 | Cc1[nH]c2c(Cl)cccc2c(=O)c1CN1CCCCCC1 | > 45.7
3 | COc1ccc(CN(C#N)c2nc(C)cc(C)n2)cc1 | 38.5 (≈ 143 µM)
4 | O=C(CSc1cccc[n+]1[O-])NCC1CCCCC1 | > 42.1
5 | CN(CC(=O)Nc1ccc(F)cc1)C(=O)Cn1cnc2ccc([N+](=O)[O-])cc2c1=O | 5.6 (≈ 13.5 µM)
6 | Cc1onc(-c2c(Cl)cccc2Cl)c1C(=O)N=C(N)N1CCCC1 | 12 (≈ 32.7 µM)
7 | Cn1ccc(C(=O)OCC(=O)Nc2ccccc2Cl)n1 | > 44.1
8 | CCOc1ccccc1NC(=O)NCCCCc1ccccc1 | < 0.3
9 | CCC(CC)NC(=O)CO/N=C/c1ccc(Cl)cc1Cl | 3 (≈ 9.46 µM)
10 | Cc1cccc(CC(=O)NC2CCCCCC2)c1 | 30.5 (≈ 124 µM)
11 | NCCCNC(=O)c1ccc(/C=N/O)nc1 | > 33.3
12 | CC(=O)N1CCN(c2c(F)c(F)c(C(F)(F)F)c(F)c2F)CC1 | 47.9 (≈ 139 µM)
13 | Cc1cc(=O)n2c(n1)NC(Nc1cccc(C)c1C)=NC2c1ccccc1 (stereo unspecified) | 1.7 (≈ 4.73 µM)
14 | CC1CN=C(NCc2ccccc2Cl)S1 (stereo unspecified) | > 36.1
15 | COC(=O)c1c(C)noc1-c1ccc(Cl)cc1 | 1.6 (≈ 6.36 µM)
16 | C=C1N(C)c2cc([N+](=O)[O-])c(N)cc2C1(C)C | > 35
17 | O=C(COC(=O)c1ccc(F)c(S(=O)(=O)N2CCOCC2)c1)NCc1ccc2c(c1)OCO2 | 53.8 (≈ 112 µM)
18 | CN(C)c1ncnc2sc(-c3ccccc3)cc12 | 3 (≈ 11.7 µM)
19 | COc1ccc(-n2c3c(cc(C#N)c2=O)C(=O)CCC3)cc1 | > 44.1
20 | Cc1ccc(NC(=O)CCc2nc3ccccc3[nH]2)cc1C | 0.3 (≈ 1.02 µM)
21 | CCOc1ccccc1Nc1cc(C)c2cccc(C)c2n1 | 0.5 (≈ 1.71 µM)
22 | O=C(NCCCN1CCCC1=O)c1ccc(Cl)c(Cl)c1 | 45.9 (≈ 146 µM)

Row | Compound | solubility kinetic [µg/mL]
23 | CNC(=S)N(CCc1c(C)[nH]c2ccccc12)Cc1ccco1 | 1.5 (≈ 4.58 µM)
24 | COc1ccc(S(=O)(=O)NC2CC(C)(C)NC(C)(C)C2)cc1 | > 49
25 | CC(=O)NC1C(O)OC(CO)C(O)C1O (stereo unspecified) | > 33.2
26 | COc1ccc(NC(=O)CN2C(=O)COc3ccc(C)cc32)cc1 | 3.3 (≈ 10.1 µM)
27 | O=C(Oc1ccc([N+](=O)[O-])cc1)C1CC(=O)N(c2ccc3c(c2)OCCO3)C1 (stereo unspecified) | > 57.7
28 | COc1ccc(C2(C)NC(=O)N(CC(=O)N(c3ccccc3)C3CCS(=O)(=O)C3)C2=O)cc1 (stereo unspecified) | 52.8 (≈ 112 µM)
29 | CC(=O)c1ccc(NC(=S)N2CCCCCC2)cc1 | > 41.5
30 | CCOc1ccc(OCC(=O)Nc2ccc(S(N)(=O)=O)cc2)cc1 | 7.1 (≈ 20.3 µM)
31 | CCOP(=O)(OCC)C(Nc1ccccc1)c1ccco1 (stereo unspecified) | > 46.4
32 | Cc1cccc(NC(=O)OC2CN3CCC2CC3)c1 (stereo unspecified) | > 39.1
33 | O=C(Nc1nc2ccccc2s1)c1ccccc1 | 3.1 (≈ 12.2 µM)
34 | Cc1cc(C)c(NC(=O)C2=COCCO2)c(C)c1 | > 37.1
35 | O=C(O)/C=C/c1cccc(NC(=O)c2ccccc2)c1 | 34 (≈ 127 µM)
36 | COc1ccccc1CC(=O)NC1CCCCCC1 | 37.6 (≈ 144 µM)
37 | CCC(=O)c1c[nH]c(C(=O)N2CCOCC2)c1 | 33.7 (≈ 143 µM)
38 | CC(=O)NCCNS(=O)(=O)c1ccc(C)c([N+](=O)[O-])c1 | > 45.2
39 | COC(=O)c1cc(C(=O)OC)cc(-n2c(C)cc(C=O)c2C)c1 | 35.8 (≈ 114 µM)
40 | Cc1ccc(C(=O)N(C)CC(=O)Nc2cccc(C)c2C)o1 | > 45.1
41 | Cc1ccc(S(=O)(=O)NC(=O)Nc2ccc(OC(F)F)cc2)cc1 | 52.3 (≈ 147 µM)
42 | O=C(c1cc(=O)[nH]c2ccccc12)N1CCc2ccccc2C1 | 42.9 (≈ 141 µM)
43 | Cc1ccc(NC(=S)NC(=O)C2CCCCC2)c(Br)c1 | 1.7 (≈ 4.78 µM)
44 | COc1cc(NC(=O)CSc2nncn2C)cc(OC)c1OC | > 50.8

Row | Compound | solubility kinetic [µg/mL]
45 | CCCc1c(C)nc(-c2ccc(C)cc2)nc1OC(=O)N(C)C | 27.3 (≈ 87.1 µM)
46 | CCn1c(SC(C)C(=O)NCC2CCCO2)nc2ccccc21 (stereo unspecified) | 49.9 (≈ 150 µM)
47 | O=C(CSc1n[nH]c(=O)n1C1CC1)Nc1ccccc1 | > 43.6
48 | Cc1cc(-c2ccccc2)nc(SCc2ccc(C(=O)O)cc2)n1 | 43.5 (≈ 129 µM)
49 | COc1ccc(Br)cc1/C=C/C(=O)OCC(=O)NCCc1ccc(S(N)(=O)=O)cc1 | 13.8 (≈ 27.7 µM)
50 | Cc1cc(C)c2nc(/N=C(\N)NC(=O)c3ccccc3)nc(C)c2c1 | 1.3 (≈ 3.9 µM)
51 | Cc1cc(C(=O)COC(=O)C(C)NC(N)=O)c(C)n1Cc1ccco1 (stereo unspecified) | 45.7 (≈ 132 µM)
52 | O=C(NC1CCCCC1)c1cc(-c2cccs2)on1 | 0.9 (≈ 3.26 µM)
53 | O=C(O)C1CCCCC1C(=O)NCCCN1CCCC1=O (stereo unspecified) | 41.4 (≈ 140 µM)
54 | Brc1cccc(CN2CCN(c3ncccn3)CC2)c1 | 25.2 (≈ 75.6 µM)
55 | COc1cccc(NC(=O)COC(=O)Cc2ccc(Cl)cc2)c1 | > 50.1
56 | COc1ccc(CCNC(=O)COC(=O)c2ncc(Cl)c(Cl)c2Cl)cc1OC | > 67.2
57 | CC(C)(C)c1ccc(C(=O)Nc2ccc(NC(=O)C(=O)O)cc2)o1 | 44.5 (≈ 135 µM)
58 | COc1ccccc1N1CCN(C(=O)c2ccc(Br)o2)CC1 | > 54.8
59 | O=C(Cc1ccc(F)cc1)Nc1ccccc1N1CCCC1 | 34.1 (≈ 114 µM)
60 | CCc1ccc(OCC(=O)Nc2ccncc2)c(Br)c1 | 15.5 (≈ 46.2 µM)
61 | CC1=C(C)CC(C(=O)NC2CCCC2)C(C(=O)O)C1 (stereo unspecified) | > 39.8
62 | COC(=O)c1cc(OCC(=O)Nc2ccc3c(c2)CCC3)cc(C(=O)OC)c1 | 3 (≈ 7.82 µM)
63 | CC(C)N(C)S(=O)(=O)c1ccc(Cl)c(C(=O)O)c1 | > 43.8
64 | CCNC(=S)NCc1ccc(OC)c(OC)c1 | > 38.2
65 | CC(C)C(OC(=O)c1cccs1)C(=O)NCCc1ccccc1 (stereo unspecified) | 45.8 (≈ 138 µM)
66 | Nc1nc2c(F)c(F)c(F)cc2s1 | 21.7 (≈ 106 µM)

Row | Compound | solubility kinetic [µg/mL]
67 | COC(=O)c1cc(OC)nc(OC)c1 | 3 (≈ 15.2 µM)
68 | Cc1cccc(NC(=O)COc2ccc3c(c2)CCC3)n1 | 2.4 (≈ 8.5 µM)
69 | Cc1noc2ncnc(Oc3ccccc3Cl)c12 | 28 (≈ 107 µM)
70 | Cc1ccc(C(=O)NC(=S)N2CCCC2)cc1 | > 37.3
71 | Cc1ccc(CC2CC(=O)N(c3ccc(C)cc3)C2=O)cc1 (stereo unspecified) | 7.8 (≈ 26.6 µM)
72 | CCN(C(=O)CSc1ncccn1)C1CCS(=O)(=O)C1 (stereo unspecified) | > 47.3
73 | Cc1ccc(CNCCc2ccccc2F)s1 | 33.2 (≈ 133 µM)
74 | Cc1ccoc1C(=O)Nc1cccc2ccccc12 | 33.9 (≈ 135 µM)
75 | N#C/C(=C\C=C\c1ccccc1)C(=O)N1CCCC1 | 7.3 (≈ 28.9 µM)
76 | COc1ccc(CCNC(=O)C2(c3ccccc3)CC2)cc1 | 43.8 (≈ 148 µM)
77 | CCOC(=O)c1cc(=O)[nH]c2ccccc12 | 30.6 (≈ 141 µM)
78 | Cl.O=S(=O)(NCCN1CCN(S(=O)(=O)c2ccccc2F)CC1)c1ccccc1F | > 72.3
79 | CCOC(=O)CN1C(=O)S/C(=C\c2ccc(-c3cccc(C(=O)O)c3C)o2)C1=O | 56.9 (≈ 137 µM)
80 | O=C(CN1C(=O)COc2ccccc21)NCCN1CCOCC1 | > 47.9
81 | Cc1ccc(Nc2c([N+](=O)[O-])ccc3nonc23)cc1C | 0.4 (≈ 1.41 µM)
82 | COc1ccc(C(C)=O)cc1Cn1c(=O)cc(C)[nH]c1=O | > 43.2
83 | COc1ccc(NC(=O)CN2CCN(c3c(C)cc(C)cc3C)CC2)cc1 | 3.9 (≈ 10.6 µM)
84 | COc1cccc(C(=O)COc2cccc(NC(=O)c3ccco3)c2)c1 | 14 (≈ 39.8 µM)
85 | CC1CCc2[nH]c3ccc(C(=O)O)cc3c2C1 (stereo unspecified) | > 34.4
86 | O=C(Nc1ccc(F)cc1)c1ccc(S(=O)(=O)N2CCOCC2)o1 | > 53.2
